# PubChem BioAssay (NCI)
#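 Five compound concentrations were applied to cells in 96-well plates for 48 hours; endpoints were derived by simple linear interpolation of the resulting dose-response curve. TGI: concentration producing complete growth inhibition.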
# Legend:
# Experiment in all cases: growth of human tumour cells (NCI), 48 h
# CAKI-1 renal = test system: CAKI-1 renal
# NCI-H226 lung = test system: NCI-H226 lung
# OVCAR-4 ovarian = test system: OVCAR-4 ovarian
# U251 CNS = test system: U251 CNS
# 786-0 renal = test system: 786-0 renal
# MCF7 breast = test system: MCF7 breast
# BT-549 breast = test system: BT-549 breast
# HCT-15 colon = test system: HCT-15 colon
# NCI/ADR-RES ovarian = test system: NCI/ADR-RES ovarian
# SF-295 CNS = test system: SF-295 CNS
# HS 578T breast = test system: HS 578T breast
# HT29 colon = test system: HT29 colon
# SF-268 CNS = test system: SF-268 CNS
# UACC-62 melanoma = test system: UACC-62 melanoma
# HCT-116 colon = test system: HCT-116 colon
# HL-60(TB) leukemia = test system: HL-60(TB) leukemia
# A549 NSCLC = test system: A549 NSCLC
# SR leukemia = test system: SR leukemia
# HOP-92 NSCLC = test system: HOP-92 NSCLC
Structure (SMILES),TGI (CAKI-1 renal),TGI (NCI-H226 lung),TGI (OVCAR-4 ovarian),TGI (U251 CNS),TGI (786-0 renal),TGI (MCF7 breast),TGI (BT-549 breast),TGI (HCT-15 colon),TGI (NCI/ADR-RES ovarian),TGI (SF-295 CNS),TGI (HS 578T breast),TGI (HT29 colon),TGI (SF-268 CNS),TGI (UACC-62 melanoma),TGI (HCT-116 colon),TGI (HL-60(TB) leukemia),TGI (A549 NSCLC),TGI (SR leukemia),TGI (HOP-92 NSCLC)
CCCCSC1=N/C(=C\c2ccco2)C(Cl)=N1,> 100 µM,> 100 µM,> 100 µM,> 100 µM,> 100 µM,> 100 µM,> 100 µM,> 100 µM,> 100 µM,> 100 µM,> 100 µM,> 100 µM,> 100 µM,> 100 µM,> 100 µM,> 100 µM,> 100 µM,,
CC(=O)O[C@H]1CCC2[C@@H]3CCC4Nc5oncc5C[C@]4(C)C3CC[C@@]21C (stereo partly specified),> 10 µM,> 10 µM,> 10 µM,> 10 µM,> 10 µM,> 10 µM,> 10 µM,> 10 µM,> 10 µM,> 10 µM,,> 10 µM,> 10 µM,,> 10 µM,4.58 µM,> 10 µM,> 10 µM,> 10 µM
COc1ccc(-c2csc(Cc3nc4ccccc4c(=O)n3-c3ccc(Cl)cc3)n2)cc1,> 100 µM,> 100 µM,> 100 µM,> 100 µM,> 100 µM,> 100 µM,> 100 µM,97.6 µM,> 100 µM,> 100 µM,> 100 µM,> 100 µM,> 100 µM,68.3 µM,57.9 µM,> 100 µM,> 100 µM,,
Cc1c(O)c(OC2OC(CO)C(O)C(O)C2O)cc2c1CC[C@@H]1C2(C)C(=O)C[C@]2(C)[C@@H]([C@@](C)(O)C(=O)CCC(C)(C)O)[C@H](O)C[C@@]12C (stereo partly specified),> 100 µM,> 100 µM,> 100 µM,> 100 µM,> 100 µM,> 100 µM,> 100 µM,> 100 µM,> 100 µM,> 100 µM,,> 100 µM,> 100 µM,> 100 µM,> 100 µM,,> 100 µM,> 100 µM,> 100 µM
COC(=O)C1(C(=O)OC)C/C(C)=C(/C)SCCCS1,> 100 µM,> 100 µM,> 100 µM,> 100 µM,> 100 µM,> 100 µM,,> 100 µM,> 100 µM,> 100 µM,> 100 µM,> 100 µM,> 100 µM,> 100 µM,> 100 µM,,> 100 µM,> 100 µM,> 100 µM
Cc1ccccc1N/C(=C(/C(Cl)=C(Cl)Cl)[N+](=O)[O-])n1nnc2ccccc21,34.9 µM,35.3 µM,34 µM,29.9 µM,> 100 µM,86.5 µM,27.5 µM,31.6 µM,49.5 µM,28.8 µM,27.1 µM,35.5 µM,30.8 µM,71.9 µM,> 100 µM,,> 100 µM,,
Cc1cc(C)c(C(=O)c2nnc3ccccc3c2N)c(C)c1,75.9 µM,49.7 µM,,> 100 µM,32.2 µM,,> 100 µM,,74.2 µM,,57.3 µM,76.8 µM,> 100 µM,62.1 µM,23.6 µM,73.4 µM,> 100 µM,> 100 µM,52.9 µM
COC(=O)[C@]12CCC(C)(C)C[C@H]1[C@H]1C(=O)C=C3[C@@]4(C)C=C(C#N)C(=O)C(C)(C)[C@@H]4CC[C@@]3(C)[C@]1(C)CC2,0.078 µM,0.301 µM,> 7.76 µM,0.0744 µM,0.415 µM,,0.194 µM,0.0392 µM,0.0337 µM,0.105 µM,2.14 µM,,,0.0945 µM,0.0441 µM,0.421 µM,1.29 µM,0.141 µM,4.03 µM
Cn1c(=O)oc2cc(C(O)CN3CCN(Cc4ccccn4)CC3)c(Cl)cc21 (stereo unspecified),> 100 µM,> 100 µM,> 100 µM,> 100 µM,> 100 µM,> 100 µM,> 100 µM,> 100 µM,> 100 µM,> 100 µM,,> 100 µM,> 100 µM,> 100 µM,> 100 µM,> 100 µM,> 100 µM,> 100 µM,> 100 µM
CCOC(=O)C1(C/C=C/CBr)CCc2ccccc2C1=O (stereo unspecified),28.8 µM,27.7 µM,29.7 µM,31.2 µM,31.2 µM,33.5 µM,44 µM,47.5 µM,63.5 µM,32.9 µM,94.4 µM,52.3 µM,46 µM,28.7 µM,26.2 µM,> 100 µM,30.6 µM,,
CC(=O)O[C@H]1CC[C@@]2(C)C(=CC[C@@H]3[C@@H]2CC[C@]2(C)NC(=O)/C(=C\c4ccccc4)C[C@@H]32)C1,> 100 µM,40.8 µM,43.8 µM,37.6 µM,41.4 µM,59.8 µM,34.2 µM,40.4 µM,63.1 µM,37.5 µM,,31.2 µM,37.9 µM,33.1 µM,46.9 µM,,38.5 µM,> 100 µM,
c1ccc(NN=C(c2ccccn2)c2ccccn2)nc1,> 100 µM,,> 100 µM,> 61.9 µM,> 100 µM,> 100 µM,> 100 µM,> 100 µM,5.05 µM,> 100 µM,> 100 µM,> 100 µM,> 100 µM,,> 100 µM,,> 21 µM,,> 100 µM
Cc1cc(C2CC(O)C(CO)O2)c(F)cc1F (stereo unspecified),> 100 µM,> 100 µM,> 100 µM,> 100 µM,> 100 µM,> 100 µM,> 100 µM,> 100 µM,> 100 µM,> 100 µM,,> 100 µM,> 100 µM,> 100 µM,> 100 µM,> 100 µM,> 100 µM,> 100 µM,> 100 µM
